# Results reported in patent US6090787A, “Antithrombotic agents” (Eli Lilly and Company, priority 1999, dated 2000).
# Square brackets hold non-standard residues; d marks the D form. Peptide text beside a SMILES is read from it. dPip = O=C(O)[C@H]1CCCCN1; Nphe = O=C(O)CNCc1ccccc1; Nleu = CC(C)CNCC(=O)O; NEtG = CCNCC(=O)O
# What was measured:
# [1] = biological target: T1, human thrombin (Homo sapiens, UniProt P00734); assay: Inhibition of amidase activity of thrombin (Kass), chromogenic substrate; assay type: biochemical; conditions: apparent association constant, mean over a range of concentrations
# T1 construct: purified human thrombin, Enzyme Research Laboratories; purchased Enzyme Research Laboratories, South Bend, Indiana
# Procedure: The assay is carried out by mixing 50 μL buffer (0.03 M Tris, 0.15 M NaCl, pH 7.4) with 25 μL of bovine thrombin or human thrombin solution (0.21 mg/mL of thrombostat bovine thrombin, Parke-Davis, or purified human thrombin, Enzyme Research Laboratories, South Bend, Indiana, at about 8 NIH units/mL, in the same buffer) and 25 μL of test compound in a solvent (in 50% aqueous methanol, v:v). The 150 μL of an aqueous solution of the chromogenic substrate (at 0.25 mg/mL) are added and the rates of hydrolysis of the substrate are measured by monitoring the reactions at 405 nm for the release of p-nitroaniline. Standard curves are constructed by plotting free thrombin concentration against hydrolysis rate. The hydrolysis rates observed with test compounds are then converted to "free thrombin" values in the respective assays by use of the standard curves. The bound thrombin (bound to test compound) is calculated by subtracting the amount of free thrombin observed in each assay from the known initial amount of thrombin used in the assay. The amount of free inhibitor in each assay is calculated by subtracting the number of moles of bound thrombin from the number of moles of added inhibitor (test compound).
# The Kass value is the hypothetical equilibrium constant for the reaction between thrombin and the test compound (I). [formula]
# Kass is calculated for a range of concentrations of test compounds and the mean value is reported in units of liter per mole.
# [2] = biological target: T2, factor Xa (Homo sapiens, UniProt P00742); assay: Serine protease selectivity, Kass, factor Xa chromogenic assay; assay type: biochemical; conditions: apparent association constant
# T2 construct: Human factors X, Xa, IXa, XIa, and XIIa are purchased from Enzyme Research Laboratories; purchased Enzyme Research Laboratories, South Bend, Ind
# Procedure: (§1) By substantially following the procedures described above for human thrombin, and using other human blood coagulation system serine proteases and proteases of the fibrinolytic system with the appropriate chromogenic substrates, identified below, selectivity of the compounds of the present invention with respect to the coagulation factor serine proteases and with respect to the fibrinolytic system serine proteases are evaluated as well as their substantial lack of interference with serine proteases of the fibrinolytic system. Thrombin inhibitors preferably should spare fibrinolysis induced by urokinase, tissue plasminogen activator (t-PA) and streptokinase. This would be important to the therapeutic use of such agents as an adjunct to streptokinase, t-PA or urokinase thrombolytic therapy and to the use of such agents as an endogenous fibrinolysis-sparing (with respect to t-PA and urokinase) antithrombotic agent. In addition to the lack of interference with the amidase activity of the fibrinolytic proteases, such fibrinolytic system sparing can be studied by the use of human plasma clots and their lysis by the respective fibrinolytic plasminogen activators.
# (§2) Human factors X, Xa, IXa, XIa, and XIIa are purchased from Enzyme Research Laboratories, South Bend, Ind.; human urokinase from Leo Pharmaceuticals, Denmark; and recombinant activated Protein C (aPC) is prepared at Eli Lilly and Co. substantially according to U.S. Pat. No. 4,981,952 incorporated by reference herein in its entirety. Chromogenic substrates: N--Benzoyl--Ile--Glu--Gly--Arg--p--nitroanilide (for factor Xa); N--Cbz--D--Arg--Gly--Arg--p--nitroanilide (for factor IXa assay as the factor Xa substrate); Pyroglutamyl--Pro--Arg--p--nitroanilide (for Factor XIa and for aPC); H--D--Pro--Phe--Arg--p--nitroanilide (for factor XIIa); and Pyroglutamyl--Gly--Arg--p--nitroanilide (for urokinase); are purchased from KabiVitrum, Stockholm, Sweden, or from Midwest Biotech, Fishers, Indiana. Bovine trypsin is purchased from Worthington Biochemicals, Freehold, N.J., and human plasma kallikrein from Kabi Vitrum, Stockholm, Sweden. Chromogenic substrate H--D--Pro--Phe--Arg--p--nitroanilide for plasma kallikrein is purchased from Kabi Vitrum, Stockholm, Sweden. N--Benzoyl--Phe--Val--Arg--p--nitroanilide, the substrate for human thrombin and for trypsin, is synthesized according to procedures described above for the compounds of the present invention, using known methods of peptide coupling from commercially available reactants or purchased from Midwest Biotech, Fishers, Ind.
# [3] = biological target: T3, Bovine trypsin (Bos taurus, UniProt P00760); assay: Serine protease selectivity, Kass, trypsin chromogenic assay; assay type: biochemical; conditions: apparent association constant
# T3 construct: purchased Worthington Biochemicals, Freehold, N.J
# T3 sequence (P00760 24-246): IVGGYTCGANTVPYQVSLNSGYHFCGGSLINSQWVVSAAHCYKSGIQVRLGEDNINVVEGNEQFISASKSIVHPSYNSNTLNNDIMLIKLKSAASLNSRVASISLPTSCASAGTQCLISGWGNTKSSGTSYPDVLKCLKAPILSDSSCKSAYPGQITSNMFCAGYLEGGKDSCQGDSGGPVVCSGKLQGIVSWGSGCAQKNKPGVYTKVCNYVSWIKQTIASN
# Procedure: as §1, §2
# [4] = biological target: T4, Human plasmin (Homo sapiens, UniProt P00747); assay: Fibrinolytic protease selectivity, Kass, plasmin chromogenic assay; assay type: biochemical; conditions: apparent association constant
# T4 construct: Human plasmin is purchased from Boehringer Mannheim; purchased Boehringer Mannheim, Indianapolis, Indiana
# Procedure: as §1
# (§3) Human plasmin is purchased from Boehringer Mannheim, Indianapolis, Indiana; nt-PA is purchased as single chain activity reference from American Diagnostica, Greenwich, Conn.; modified-t-PA6 (mt-PA6) is prepared at Eli Lilly and Company by procedure known in the art (See, Burck, et al., J. Biol. Chem., 265, […] (1990). Plasmin chromogenic substrate H--D--Val--Leu--Lys--p--nitroanilide and tissue plasminogen activator (t-PA) substrate H--D--Ile--Pro--Arg--p--nitroanilide are purchased from Kabi Vitrum, Stockholm, Sweden.
# [5] = biological target: T5, tissue plasminogen activator (t-PA) (Homo sapiens, UniProt P00750); assay: Fibrinolytic protease selectivity, Kass, t-PA chromogenic assay; assay type: biochemical; conditions: apparent association constant
# T5 construct: purchased American Diagnostica, Greenwich, Conn
# Procedure: as §1, §3
# [6] = system: human plasma; assay: Human plasma anticoagulation, thrombin time (TT); conditions: concentration required to double the thrombin time, linear extrapolation
# Procedure: (§4) Dog plasma and rat plasma is obtained from conscious mixed-breed hounds (either sex, Hazelton-LRE, Kalamazoo, Mich., U.S.A.) or from anesthetized male Sprague-Dawley rats (Harlan Sprague-Dawley, Inc., Indianapolis, Ind., U.S.A.) by venipuncture into 3.8 percent citrate. Fibrinogen is prepared from in-date ACD human blood as the fraction I-2 according to previous procedures and specifications. Smith, Biochem. J., 185, 1-11 (1980); and Smith, et al., Biochemistry, 11, 2958-2967 (1972). Human fibrinogen is also purchased as 98 percent pure/plasmin free from American Diagnostica, Greenwich, Conn. Coagulation reagents ACTIN, Thromboplastin, and Human plasma are from Baxter Healthcare Corp., Dade Division, Miami, Fla. Bovine thrombin from Parke-Davis ([…], Mich.) is used for coagulation assays in plasma.
# (§5) Coagulation assay procedures are as previously described. Smith, et al., Thrombosis Research, 50, 163-174 (1988). A CoAScreener coagulation instrument (American LABor, Inc.) is used for all coagulation assay measurements. The prothrombin time (PT) is measured by adding 0.05 mL saline and 0.05 mL Thromboplastin-C reagent to 0.05 mL test plasma. The activated partial thromboplastin time (APTT) is measured by incubation of 0.05 mL test plasma with 0.05 mL Actin reagent for 120 seconds followed by 0.05 mL CaCl2 (0.02 M). The thrombin time (TT) is measured by adding 0.05 mL saline and 0.05 mL thrombin (10 NIH units/mL) to 0.05 mL test plasma. The compounds of formula I are added to human or animal plasma over a wide range of concentrations to determine prolongation effects on the APTT, PT, and TT assays. Linear extrapolations are performed to estimate the concentrations required to double the clotting time for each assay.
# [7] = system: human plasma; assay: Human plasma anticoagulation, activated partial thromboplastin time (APTT); conditions: concentration required to double the APTT, linear extrapolation
# Procedure: as §4, §5
# [8] = system: human plasma; assay: Human plasma anticoagulation, prothrombin time (PT); conditions: concentration required to double the PT, linear extrapolation
# Procedure: as §4, §5
# T2 sequence (P00742 235-488 limits assumed): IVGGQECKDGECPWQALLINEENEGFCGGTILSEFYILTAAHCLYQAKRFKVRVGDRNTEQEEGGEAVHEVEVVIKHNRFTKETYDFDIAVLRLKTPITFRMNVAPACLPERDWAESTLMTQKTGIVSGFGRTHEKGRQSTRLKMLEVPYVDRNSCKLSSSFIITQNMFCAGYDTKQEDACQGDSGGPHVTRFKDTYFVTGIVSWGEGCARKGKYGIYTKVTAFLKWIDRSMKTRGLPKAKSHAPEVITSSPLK
# T2 sequence (P00742 41-179 partner limits assumed): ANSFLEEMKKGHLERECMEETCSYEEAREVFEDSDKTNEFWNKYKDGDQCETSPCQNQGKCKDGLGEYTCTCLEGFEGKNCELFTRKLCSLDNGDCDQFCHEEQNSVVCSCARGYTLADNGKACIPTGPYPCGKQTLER
# T4 sequence (P00747 581-810 limits assumed): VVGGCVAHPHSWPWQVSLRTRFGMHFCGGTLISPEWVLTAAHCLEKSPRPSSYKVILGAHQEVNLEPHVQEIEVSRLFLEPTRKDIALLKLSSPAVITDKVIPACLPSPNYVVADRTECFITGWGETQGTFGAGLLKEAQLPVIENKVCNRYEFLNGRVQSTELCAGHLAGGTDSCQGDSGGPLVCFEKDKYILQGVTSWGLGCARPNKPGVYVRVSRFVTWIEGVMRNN
# T4 sequence (P00747 97-580 partner limits assumed): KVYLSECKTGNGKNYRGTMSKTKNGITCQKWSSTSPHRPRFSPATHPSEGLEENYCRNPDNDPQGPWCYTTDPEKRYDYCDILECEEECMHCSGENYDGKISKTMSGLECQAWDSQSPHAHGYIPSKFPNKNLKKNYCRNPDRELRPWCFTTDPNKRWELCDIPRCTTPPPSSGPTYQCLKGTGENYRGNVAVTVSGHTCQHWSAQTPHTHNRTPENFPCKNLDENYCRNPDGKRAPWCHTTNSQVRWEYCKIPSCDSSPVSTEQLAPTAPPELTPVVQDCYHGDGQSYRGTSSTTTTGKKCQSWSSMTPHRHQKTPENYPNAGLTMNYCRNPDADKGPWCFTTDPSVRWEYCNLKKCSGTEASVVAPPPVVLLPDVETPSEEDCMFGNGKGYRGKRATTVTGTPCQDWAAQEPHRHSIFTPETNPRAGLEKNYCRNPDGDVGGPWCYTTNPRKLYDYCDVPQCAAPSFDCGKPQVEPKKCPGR
# T5 sequence (P00750 36-562): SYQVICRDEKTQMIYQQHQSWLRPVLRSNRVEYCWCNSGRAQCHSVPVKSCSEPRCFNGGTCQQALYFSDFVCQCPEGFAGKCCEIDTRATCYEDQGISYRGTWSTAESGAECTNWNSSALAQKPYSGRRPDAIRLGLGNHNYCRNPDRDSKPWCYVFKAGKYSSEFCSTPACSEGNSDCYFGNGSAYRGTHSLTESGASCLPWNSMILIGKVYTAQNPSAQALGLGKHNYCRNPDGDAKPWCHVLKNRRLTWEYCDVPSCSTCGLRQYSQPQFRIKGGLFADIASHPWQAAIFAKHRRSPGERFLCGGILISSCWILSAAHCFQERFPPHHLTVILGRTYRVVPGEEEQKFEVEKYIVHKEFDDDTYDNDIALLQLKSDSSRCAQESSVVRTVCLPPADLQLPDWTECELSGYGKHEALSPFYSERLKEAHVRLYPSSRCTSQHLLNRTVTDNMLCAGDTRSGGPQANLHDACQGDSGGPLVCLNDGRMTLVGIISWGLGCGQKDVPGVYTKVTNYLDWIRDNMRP
SMILES,Enzyme Kass Human Thrombin [1],Enzyme Kass Xa [2],Enzyme Kass Trypsin [3],Enzyme Kass Plasmin [4],Enzyme Kass t-PA [5],Human Plasma Anticoagulation 2 × Clotting time TT [6],Human Plasma Anticoagulation 2 × Clotting time APTT [7],Human Plasma Anticoagulation 2 × Clotting time PT [8]
"CCN(CC(=O)N[C@H](C=O)CCCNC(=N)N)C(=O)[C@H]1CCCCN1.Cl.Cl [Example 2, D-homoprolyl-N-ethylglycyl-L-argininal dihydrochloride] (H-[dPip]-[NEtG]-Arg-aldehyde)",33 L/mol × 10^6,0.039 L/mol × 10^6,1.3 L/mol × 10^6,0.013 L/mol × 10^6,0.005 L/mol × 10^6,160 ng/mL,"2,600 ng/mL","5,000 ng/mL"
"CCCN(CC(=O)N[C@H](C=O)CCCNC(=N)N)C(=O)[C@H]1CCCCN1.Cl.Cl [Example 3, D-homoprolyl-N-n-propylglycyl-L-argininal dihydrochloride]",34 L/mol × 10^6,0.084 L/mol × 10^6,2.4 L/mol × 10^6,0.045 L/mol × 10^6,0.004 L/mol × 10^6,77 ng/mL,"2,100 ng/mL","2,000 ng/mL"
"CC(C)N(CC(=O)NC(C=O)CCCNC(=N)N)C(=O)C1CCCCN1.Cl.Cl [Example 4, D--hPro--N(i--Pr)Gly--ArgH.2HCl]",9.7 L/mol × 10^6,0.074 L/mol × 10^6,0.5 L/mol × 10^6,0.031 L/mol × 10^6,0.001 L/mol × 10^6,230 ng/mL,"12,000 ng/mL","14,000 ng/mL"
"CC(C)CN(CC(=O)N[C@H](C=O)CCCNC(=N)N)C(=O)[C@H]1CCCCN1.Cl.Cl [Example 5, D--hPro--N(i--Bu)Gly--ArgH.2HCl] (H-[dPip]-[Nleu]-Arg-aldehyde)",24 L/mol × 10^6,0.060 L/mol × 10^6,1.6 L/mol × 10^6,0.050 L/mol × 10^6,0.002 L/mol × 10^6,100 ng/mL,"3,800 ng/mL","4,900 ng/mL"
"Cl.Cl.N=C(N)NCCC[C@@H](C=O)NC(=O)CN(Cc1ccccc1)C(=O)[C@H]1CCCCN1 [Example 7, D--hPro--N(Bn)Gly--ArgH.2HCl] (H-[dPip]-[Nphe]-Arg-aldehyde)",11 L/mol × 10^6,0.25 L/mol × 10^6,10 L/mol × 10^6,0.13 L/mol × 10^6,0.010 L/mol × 10^6,120 ng/mL,"3,700 ng/mL","4,400 ng/mL"
"Cl.Cl.N=C(N)NCCC[C@@H](C=O)NC(=O)CN(CCCc1ccccc1)C(=O)[C@H]1CCCCN1 [Example 9, D--hPro--N(PhCH2 CH2 CH2)Gly--ArgH.2HCl]",24 L/mol × 10^6,0.31 L/mol × 10^6,6.0 L/mol × 10^6,0.12 L/mol × 10^6,0.006 L/mol × 10^6,55 ng/mL,"2,200 ng/mL","3,000 ng/mL"
"Cl.Cl.NC(N)=NCCC[C@@H](C=O)NC(=O)CN(CCC1CCCCC1)C(=O)[C@H]1CCCCN1 [Example 10, D--hPro--N(cyclohexyl--CH2 CH2)Gly--ArgH.2HCl]",5.4 L/mol × 10^6,0.22 L/mol × 10^6,5.8 L/mol × 10^6,0.33 L/mol × 10^6,0.007 L/mol × 10^6,230 ng/mL,"4,100 ng/mL","6,900 ng/mL"
"Cl.Cl.N=C(N)NCCC[C@@H](C=O)NC(=O)CN(C(=O)[C@H]1CCCCN1)c1ccccc1 [Example 11, D--hPro--N(Ph)Gly--ArgH.2HCl]",16 L/mol × 10^6,0.21 L/mol × 10^6,1.1 L/mol × 10^6,0.036 L/mol × 10^6,0.0039 L/mol × 10^6,120 ng/mL,"2,200 ng/mL","3,100 ng/mL"
